Where two headings read alike, the source gives them in different places. Where a SMILES comes first, the peptide text is derived from it. [ ]: non-standard residue; d: D form. The star is where a group is joined. Bip(2'-Et,4'-O(CH2)4NH2) = CCc1cc(OCCCCN)ccc1-c1ccc(C[C@H](N)C(=O)O)cc1; Nva(5-(3,5-Me2Ph)) = Cc1cc(C)cc(CCC[C@H](N)C(=O)O)c1; Ala(1H-tetrazol-5-yl) = N[C@@H](Cc1nnn[nH]1)C(=O)O; αMePhe(2-F) = C[C@](N)(Cc1ccccc1F)C(=O)O; X1 = O=C(CCCCCc1cnc[nH]1)*; X2 = CC(C)(C(N)=O)C(=O)*; X4 = CC(C)(C(=O)O)C(=O)*
Key:
human GLP1R [1] = molecular target: T1, human GLP1R (Homo sapiens, UniProt P43220); assay: Human GLP1R cAMP accumulation assay; format: cell-based; parameters: HEK293 cells over-expressing full length human GLP-1R were utilized; expressed in transfected cells; host or cells: HEK293 (HEK293/hGLP1R); conditions: HEK293/hGLP1R cells; Table 4; read-out: cAMP EC50
T1 sequence (P43220 24-463): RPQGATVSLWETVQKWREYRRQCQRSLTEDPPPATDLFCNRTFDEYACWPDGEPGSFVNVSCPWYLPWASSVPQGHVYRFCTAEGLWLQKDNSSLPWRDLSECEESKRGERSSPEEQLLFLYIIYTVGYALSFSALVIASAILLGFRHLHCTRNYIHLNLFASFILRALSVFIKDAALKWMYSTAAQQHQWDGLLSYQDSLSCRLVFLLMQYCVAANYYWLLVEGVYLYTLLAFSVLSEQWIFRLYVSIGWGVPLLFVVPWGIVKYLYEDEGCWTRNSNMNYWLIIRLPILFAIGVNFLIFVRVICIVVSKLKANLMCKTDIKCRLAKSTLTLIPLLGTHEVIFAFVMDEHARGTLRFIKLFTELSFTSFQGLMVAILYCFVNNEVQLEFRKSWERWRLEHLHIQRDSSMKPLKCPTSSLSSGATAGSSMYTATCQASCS
Summary of the method: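 cAMP accumulation measured after 30 min at 23° C, with 500 μM IBMX in HEPES-buffered HBSS plus 0.1% BSA, in HEK293 cells expressing full-length hGLP-1R. Levels read by D2-cAMP/antibody immunoassay via standard curve, scaled between low and high controls. EC50 fitted four-parameter over a 10-point curve.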

human GLP1R [2] = molecular target: T1, human GLP1R; assay: Luciferase reporter assay, HEK293/CRE-Luc/hGLP1R cells (Example 11); format: cell-based; parameters: engineered to express full-length human GLP1R, cynomolgus GLP1R; expressed in transfected cells; host or cells: HEK293/CRE-Luc; conditions: Table 11; Experiment A
Source text: To test the activity of GLP1R agonist payloads, GLP1R agonist linker-payloads (LPs), and anti-GLP1R antibody tethered drug conjugates (ATDCs) of the disclosure, a cell-based cAMP responsive luciferase reporter assay was developed. To generate the assay cell line, the firefly luciferase gene was placed under the control of a cAMP response element (CRE) located upstream of a minimal promoter and transfected into HEK293 cells and referred to herein as HEK293/CRE-Luc cells.
Three-fold serial dilutions of free payloads or LPs were prepared in 100% DMSO, transferred to fresh assay media, and added to the cells at a final constant DMSO concentration of 0.2%. The last well in the plate served as a blank control containing only the assay media and 0.2% DMSO (untreated well) and was plotted as a continuation of the 3-fold serial dilution. Four to six hours later, luciferase activity was determined after the addition of One-Glo™ reagent (Promega, Cat #E6130) to each well. Relative light units (RLUs) were measured on an Envision luminometer (PerkinElmer) and EC50 values were determined using a four-parameter logistic equation over a 12-point dose response curve (GraphPad Prism). The signal to noise (S/N) was determined by taking the ratio of the highest RLU on the dose response curve to the RLU in the untreated wells.
GLP1R agonist linker payloads were conjugated to anti-hGLP1R antibodies via N-terminal heavy or light chain Q tags. Several resulting anti-GLP1R antibody tethered drug conjugates (ATDCs) were tested for activity in the HEK293/CRE-Luc/hGLP1R reporter assay as described above for the free GLP1R payload and linker-payload agonists.

human GLP1R [3] = molecular target: T1, human GLP1R; assay: Luciferase reporter assay, HEK293/CRE-Luc/hGLP1R (Example 17); format: cell-based; parameters: engineered to express full-length human GLP1R, cynomolgus GLP1R; expressed in transfected cells; host or cells: HEK293/CRE-Luc; conditions: HEK293/CRE-Luc/hGLP1R; for S/N: highest RLU / RLU of untreated wells; for EC50: payloads and linker-payloads, experiments A-E, M2361 repeated in each, read-out: EC50; for Relative Potency (% M2361 EC50) / Relative Signal:Noise (% M2361): relative to M2361 of the same experiment
Summary of the method: (§1)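 HEK293 cells carrying a CRE-driven firefly luciferase reporter were exposed to 3-fold serial dilutions of payloads or linker-payloads (12 points, 0.2% DMSO final) for 4–6 h, then luminescence was read. EC50 came from a four-parameter logistic fit; S/N is top RLU over untreated wells, and relative potency and S/N are referenced to M2361.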

HEK293/CRE-Luc cells [4] = assay: Luciferase reporter assay, HEK293/CRE-Luc cells without hGLP1R (Example 11); format: cell-based, human; conditions: Table 11; Experiment A; no hGLP1R expression
Summary of the method: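 Counter-screen in HEK293 cells carrying CRE-driven firefly luciferase without hGLP1R; 3-fold serial dilutions of payloads or linker-payloads at 0.2% final DMSO, 4–6 h.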

[5] = Plasma stability of payloads and linker-payloads, human plasma; format: in vitro ADME; conditions: plasma, 2 μM, 37° C., read-out: Human plasma stability assay T½ (converted)
Method: The plasma stability of payloads and linker payloads of the disclosure were measured. For the assay, pooled frozen plasma (human, mouse or monkey) was thawed in cold water or a 37° C. water bath prior to experiment. Plasma was centrifuged at 4000 rpm for 5 min if any clots were observed, they were subsequently removed. If required, the pH was adjusted to 7.4±0.1. For the preparation of compounds and positive controls, a 1 mM intermediate solution was prepared by diluting 10 μL of their stock solution with 90 μL DMSO; a 1 mM intermediate solution of the positive control (Propantheline) was prepared by diluting 10 μL of its stock solution with 90 μL ultrapure water. […] 98 μL of plasma was spiked with 2 μL of dosing solution (100 μM) to achieve the final concentration of 2 μM in duplicate. Samples were then incubated at 37° C. in a water bath. […] At each time point, 400 μL of stop solution (200 ng/mL tolbutamide plus 200 ng/mL labetalol in 50% ACN/MeOH) was added to precipitate protein and mixed thoroughly. Sample plates were then centrifuged at 4,000 rpm for 10 min. An aliquot of supernatant (50 μL) was transferred from each well and mixed with 100 μL ultrapure water. The samples were then shaken at 800 rpm for approximately 10 min before submitting for LC-MS/MS analysis.

[6] = Plasma stability of payloads (t½)
HEK293/CRE-Luc cells [7] = assay: Luciferase reporter assay, HEK293/CRE-Luc cells without GLP1R (Example 17); format: cell-based, human; conditions: HEK293/CRE-Luc cells without hGLP1R, payloads and linker-payloads; for EC50: read-out: EC50
Summary of the method: as §1

[8] = pH 7.4, tested time A (1 day per footnote)

CCc1cc(OCCCCN)ccc1-c1ccc(C[C@H](NC(=O)[C@H](CC(=O)O)NC(=O)[C@H](CO)NC(=O)[C@@H](NC(=O)[C@](C)(Cc2ccccc2F)NC(=O)[C@@H](NC(=O)CNC(=O)[C@H](Cc2nn[nH]n2)NC(=O)C(C)(C)C(N)=O)[C@@H](C)O)[C@@H](C)O)C(=O)N[C@@H](CCCc2cc(C)cc(C)c2)C(N)=O)cc1 [P4] (X2-[Ala(1H-tetrazol-5-yl)]GT[αMePhe(2-F)]TSD[Bip(2'-Et,4'-O(CH2)4NH2)][Nva(5-(3,5-Me2Ph))]-NH2)
EC50 (human GLP1R [1]): 0.156 nM | EC50 (human GLP1R [2]): 0.0837 nM | HEK293/CRE-LUC/hGLP1R Relative Potency (% P8 EC50) (human GLP1R [2]): 6.3% | HEK293/CRE-LUC/hGLP1R S/N (human GLP1R [2]): 66.9 | S/N (human GLP1R [3]): 66.9 | EC50 (human GLP1R [3]): 0.0837 nM | Relative Potency (% M2361 EC50) (human GLP1R [3]): 6.3% | Relative Signal:Noise (% M2361) (human GLP1R [3]): 101.8% | EC50 (HEK293/CRE-Luc cells [4]): > 200 nM | HEK293/CRE-LUC S/N (HEK293/CRE-Luc cells [4]): 1.6 | half-life at 2 µM [5, 8]: > 57.8 h | Plasma stability t½ [6]: >57.8 h | S/N (HEK293/CRE-Luc cells [7]): 1.6 | EC50 (HEK293/CRE-Luc cells [7]): > 200 nM

CCc1cc(OCCCCN)ccc1-c1ccc(C[C@H](NC(=O)[C@H](CC(=O)O)NC(=O)[C@H](CO)NC(=O)[C@@H](NC(=O)[C@](C)(Cc2ccccc2F)NC(=O)[C@@H](NC(=O)CNC(=O)[C@H](Cc2nn[nH]n2)NC(=O)CCCCCc2cnc[nH]2)[C@@H](C)O)[C@@H](C)O)C(=O)N[C@@H](CCCc2cc(C)cc(C)c2)C(N)=O)cc1 [P11] (X1-[Ala(1H-tetrazol-5-yl)]GT[αMePhe(2-F)]TSD[Bip(2'-Et,4'-O(CH2)4NH2)][Nva(5-(3,5-Me2Ph))]-NH2)
EC50 (human GLP1R [1]): 1.03 nM | EC50 (human GLP1R [2]): 0.685 nM | HEK293/CRE-LUC/hGLP1R Relative Potency (% P8 EC50) (human GLP1R [2]): 0.8% | HEK293/CRE-LUC/hGLP1R S/N (human GLP1R [2]): 54.8 | S/N (human GLP1R [3]): 54.8 | EC50 (human GLP1R [3]): 0.685 nM | Relative Potency (% M2361 EC50) (human GLP1R [3]): 0.8% | Relative Signal:Noise (% M2361) (human GLP1R [3]): 83.4% | EC50 (HEK293/CRE-Luc cells [4]): > 200 nM | HEK293/CRE-LUC S/N (HEK293/CRE-Luc cells [4]): 1.1 | half-life at 2 µM [5, 8]: > 57.8 h | Plasma stability t½ [6]: >57.8 h | S/N (HEK293/CRE-Luc cells [7]): 1.1 | EC50 (HEK293/CRE-Luc cells [7]): > 200 nM

CCc1cc(OCCCCN)ccc1-c1ccc(C[C@H](NC(=O)[C@H](CC(=O)O)NC(=O)[C@H](CO)NC(=O)[C@@H](NC(=O)[C@](C)(Cc2ccccc2F)NC(=O)[C@@H](NC(=O)CNC(=O)[C@H](Cc2nn[nH]n2)NC(=O)C(C)(C)C(=O)O)[C@@H](C)O)[C@@H](C)O)C(=O)N[C@@H](CCCc2cc(C)cc(C)c2)C(N)=O)cc1 [P3] (X4-[Ala(1H-tetrazol-5-yl)]GT[αMePhe(2-F)]TSD[Bip(2'-Et,4'-O(CH2)4NH2)][Nva(5-(3,5-Me2Ph))]-NH2)
EC50 (human GLP1R [1]): 1.43 nM | EC50 (human GLP1R [2]): 1.95 nM | HEK293/CRE-LUC/hGLP1R Relative Potency (% P8 EC50) (human GLP1R [2]): 0.3% | HEK293/CRE-LUC/hGLP1R S/N (human GLP1R [2]): 46.3 | S/N (human GLP1R [3]): 46.3 | EC50 (human GLP1R [3]): 1.95 nM | Relative Potency (% M2361 EC50) (human GLP1R [3]): 0.3% | Relative Signal:Noise (% M2361) (human GLP1R [3]): 70.3% | EC50 (HEK293/CRE-Luc cells [4]): > 200 nM | HEK293/CRE-LUC S/N (HEK293/CRE-Luc cells [4]): 1.2 | half-life at 2 µM [5, 8]: > 57.8 h | Plasma stability t½ [6]: >57.8 h | S/N (HEK293/CRE-Luc cells [7]): 1.2 | EC50 (HEK293/CRE-Luc cells [7]): > 200 nM

CCc1cc(OCCCCN)ccc1-c1ccc(C[C@H](NC(=O)[C@H](CC(=O)O)NC(=O)[C@H](CO)NC(=O)[C@@H](NC(=O)[C@](C)(Cc2ccccc2F)NC(=O)[C@@H](NC(=O)CNC(=O)[C@H](CCC(N)=O)NC(=O)C(C)(C)C(=O)NCCc2cnc[nH]2)[C@@H](C)O)[C@@H](C)O)C(=O)N[C@@H](CCCc2cc(C)cc(C)c2)C(N)=O)cc1 [P21]
EC50 (human GLP1R [1]): 0.427 nM | EC50 (human GLP1R [2]): 0.738 nM | HEK293/CRE-LUC/hGLP1R Relative Potency (% P8 EC50) (human GLP1R [2]): 0.7% | HEK293/CRE-LUC/hGLP1R S/N (human GLP1R [2]): 58.8 | S/N (human GLP1R [3]): 58.8 | EC50 (human GLP1R [3]): 0.738 nM | Relative Potency (% M2361 EC50) (human GLP1R [3]): 0.7% | Relative Signal:Noise (% M2361) (human GLP1R [3]): 89.5% | EC50 (HEK293/CRE-Luc cells [4]): > 200 nM | HEK293/CRE-LUC S/N (HEK293/CRE-Luc cells [4]): 1.3 | half-life at 2 µM ([5]; pH 7.4, tested time C (3 days)): > 173 h | Plasma stability t½ [6]: >57.8 h | S/N (HEK293/CRE-Luc cells [7]): 1.3 | EC50 (HEK293/CRE-Luc cells [7]): > 200 nM

CCc1cc(OCCCCN)ccc1-c1ccc(C[C@H](NC(=O)[C@H](CC(=O)O)NC(=O)[C@H](CO)NC(=O)[C@@H](NC(=O)[C@](C)(Cc2ccccc2F)NC(=O)[C@@H](NC(=O)CNC(=O)[C@H](Cc2nn[nH]n2)NC(=O)[C@H](C)NC(=O)[C@H](Cc2c[nH]cn2)NC(=O)[C@@H](N)CCC(N)=O)[C@@H](C)O)[C@@H](C)O)C(=O)N[C@@H](CCCc2cc(C)cc(C)c2)C(N)=O)cc1 [P13] (H-QHA[Ala(1H-tetrazol-5-yl)]GT[αMePhe(2-F)]TSD[Bip(2'-Et,4'-O(CH2)4NH2)][Nva(5-(3,5-Me2Ph))]-NH2)
EC50 (human GLP1R [1]): 0.914 nM | EC50 (human GLP1R [2]): 0.357 nM | HEK293/CRE-LUC/hGLP1R Relative Potency (% P8 EC50) (human GLP1R [2]): 1.5% | HEK293/CRE-LUC/hGLP1R S/N (human GLP1R [2]): 69.5 | S/N (human GLP1R [3]): 69.5 | EC50 (human GLP1R [3]): 0.357 nM | Relative Potency (% M2361 EC50) (human GLP1R [3]): 1.5% | Relative Signal:Noise (% M2361) (human GLP1R [3]): 105.6% | EC50 (HEK293/CRE-Luc cells [4]): > 200 nM | HEK293/CRE-LUC S/N (HEK293/CRE-Luc cells [4]): 1.2 | half-life at 2 µM [5, 8]: 16.9 h | Plasma stability t½ [6]: 16.9 h | S/N (HEK293/CRE-Luc cells [7]): 1.2 | EC50 (HEK293/CRE-Luc cells [7]): > 200 nM
